Measurements reported in ChEMBL document CHEMBL1152879, “Discovery of GlyT1 inhibitors with improved pharmacokinetic properties” (Bioorg Med Chem Lett, 2009).
Calls of active or inactive are those of the source. The calls are words filed in the database; no cut-off is given here.

Tests used:
[1] = target: T1, Sodium- and chloride-dependent taurine transporter (Homo sapiens, UniProt P31641); test: Inhibition of taurine transporter
T1 sequence (P31641 whole entry): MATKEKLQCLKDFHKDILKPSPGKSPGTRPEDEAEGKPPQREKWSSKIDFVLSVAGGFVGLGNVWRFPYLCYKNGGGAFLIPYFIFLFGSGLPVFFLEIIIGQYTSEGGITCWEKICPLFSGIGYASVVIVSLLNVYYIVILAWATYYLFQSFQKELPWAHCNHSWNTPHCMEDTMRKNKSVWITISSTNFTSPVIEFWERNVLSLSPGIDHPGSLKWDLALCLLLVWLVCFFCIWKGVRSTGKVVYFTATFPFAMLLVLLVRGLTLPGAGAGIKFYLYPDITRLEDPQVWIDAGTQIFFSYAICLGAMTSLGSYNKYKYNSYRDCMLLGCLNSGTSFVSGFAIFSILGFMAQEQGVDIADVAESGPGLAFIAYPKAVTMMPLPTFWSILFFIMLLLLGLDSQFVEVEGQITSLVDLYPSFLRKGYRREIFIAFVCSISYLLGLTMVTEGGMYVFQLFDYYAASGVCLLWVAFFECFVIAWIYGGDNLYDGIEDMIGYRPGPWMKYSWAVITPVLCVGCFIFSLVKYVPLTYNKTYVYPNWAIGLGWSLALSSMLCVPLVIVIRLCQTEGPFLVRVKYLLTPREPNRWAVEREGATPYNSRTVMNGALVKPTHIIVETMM

[2] = Half life in dog at 0.25 mg/kg, iv by cassette dosing; assay type: ADME, organism-based, Canis lupus familiaris; parameters: dose 0.25 mg/kg, route intravenous; conditions: in vivo
[3] = Clearance in dog at 0.25 mg/kg, iv by cassette dosing; assay type: ADME, organism-based, Canis lupus familiaris; parameters: dose 0.25 mg/kg, route intravenous; conditions: in vivo
[4] = target: T2, Sodium- and chloride-dependent glycine transporter 2 (Homo sapiens, UniProt Q9Y345); test: Inhibition of Glyt2
T2 sequence (Q9Y345 whole entry): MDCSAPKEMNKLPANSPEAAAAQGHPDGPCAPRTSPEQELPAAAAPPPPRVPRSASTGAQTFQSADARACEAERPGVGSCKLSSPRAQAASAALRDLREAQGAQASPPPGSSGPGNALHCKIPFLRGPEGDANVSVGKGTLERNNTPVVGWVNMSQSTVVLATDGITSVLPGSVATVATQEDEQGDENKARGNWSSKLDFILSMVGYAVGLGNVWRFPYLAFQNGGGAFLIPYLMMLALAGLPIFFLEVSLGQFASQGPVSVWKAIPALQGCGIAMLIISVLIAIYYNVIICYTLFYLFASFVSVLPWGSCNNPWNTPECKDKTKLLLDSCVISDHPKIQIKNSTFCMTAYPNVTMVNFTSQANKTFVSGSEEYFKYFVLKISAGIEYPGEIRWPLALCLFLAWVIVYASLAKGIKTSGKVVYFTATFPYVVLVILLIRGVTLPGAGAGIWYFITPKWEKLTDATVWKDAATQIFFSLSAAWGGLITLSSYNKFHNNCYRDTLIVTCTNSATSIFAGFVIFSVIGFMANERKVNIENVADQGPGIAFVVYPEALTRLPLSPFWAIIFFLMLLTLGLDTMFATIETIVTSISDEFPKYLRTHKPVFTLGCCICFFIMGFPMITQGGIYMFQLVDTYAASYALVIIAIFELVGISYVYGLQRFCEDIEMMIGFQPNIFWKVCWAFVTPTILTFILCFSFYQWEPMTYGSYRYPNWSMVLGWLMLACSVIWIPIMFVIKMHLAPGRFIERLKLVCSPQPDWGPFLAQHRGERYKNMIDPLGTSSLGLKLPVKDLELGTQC

[5] = target: T3, Sodium- and chloride-dependent glycine transporter 1 (Homo sapiens, UniProt P48067); test: (§1) Inhibition of Glyt1
T3 sequence (P48067 whole entry): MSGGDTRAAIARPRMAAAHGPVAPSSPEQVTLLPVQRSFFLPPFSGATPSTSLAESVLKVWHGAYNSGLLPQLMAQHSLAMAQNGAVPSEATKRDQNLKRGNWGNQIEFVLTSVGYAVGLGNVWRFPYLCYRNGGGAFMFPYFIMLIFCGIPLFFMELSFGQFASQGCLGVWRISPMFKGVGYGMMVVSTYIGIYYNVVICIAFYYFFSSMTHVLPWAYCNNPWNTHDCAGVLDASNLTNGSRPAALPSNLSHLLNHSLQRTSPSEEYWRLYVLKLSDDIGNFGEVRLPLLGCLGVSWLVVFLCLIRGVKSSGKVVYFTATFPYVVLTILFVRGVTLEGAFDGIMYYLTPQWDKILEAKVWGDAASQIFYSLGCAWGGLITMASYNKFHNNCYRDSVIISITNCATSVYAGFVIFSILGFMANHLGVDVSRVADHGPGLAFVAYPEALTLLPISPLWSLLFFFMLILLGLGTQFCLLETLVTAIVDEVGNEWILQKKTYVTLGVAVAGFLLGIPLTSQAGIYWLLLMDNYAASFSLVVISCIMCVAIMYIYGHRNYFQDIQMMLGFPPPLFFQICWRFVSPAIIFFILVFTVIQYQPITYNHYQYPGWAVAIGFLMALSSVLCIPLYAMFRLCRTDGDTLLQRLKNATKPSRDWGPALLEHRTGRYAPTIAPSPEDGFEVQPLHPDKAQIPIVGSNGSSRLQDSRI

Homo sapiens = species on record: Homo sapiens; test: Activity of human P-glycoprotein
[6] = Clearance in dog at 0.5 mg/kg, iv and 1 mg/kg, po; assay type: ADME, organism-based, Canis lupus familiaris; conditions: in vivo
[7] = Volume of distribution at steady state in dog at 0.5 mg/kg, iv and 1 mg/kg, po; assay type: ADME, organism-based, Canis lupus familiaris; conditions: in vivo, read-out: Vdss
Rattus norvegicus [8] = species on record: Rattus norvegicus; test: Activity of rat P-glycoprotein
Rattus norvegicus [9] = test: In vivo plasma occupancy by displacement of [35S]ACPPB from rat GlyT1 in po dosed rat brain; assay type: functional
[10] = Half life in dog at 0.5 mg/kg, iv and 1 mg/kg, po; assay type: ADME, organism-based, Canis lupus familiaris; conditions: in vivo
[11] = Oral bioavailability in dog at 1 mg/kg; assay type: ADME, organism-based, Canis lupus familiaris; conditions: in vivo
[12] = target: T4, Sodium- and chloride-dependent glycine transporter 1 (Homo sapiens) (UniProt P48067); test: as §1
T4 sequence (whole entry): T3 sequence (P48067 whole entry)

MDR1 (human) = test: Passive permeability from apical to basolateral side of pig LLC-PK1 cells expressing human MDR1; assay type: ADME, cell-based, Sus scrofa; conditions: read-out: permeability

Row | Structure (SMILES) | IC50 [1] [nM] | half-life [2] [h] | clearance [3] [mL/min/kg] | IC50 [4] [nM] | IC50 [5] [nM] | other results
1 | CCCS(=O)(=O)N1CCC(CNC(=O)c2ccc(Cl)cc2Cl)(C2CCCCC2O)CC1 (stereo unspecified) | > 30000 | < 2 | > 15 | > 30000 | 2.8 | 
2 | CN(C)S(=O)(=O)N1CCC(CNC(=O)c2ccc(Cl)cc2Cl)(c2ccccn2)CC1 |  | 1.9 | 11.8 |  | 77 | 
3 | CCS(=O)(=O)N1CCC(c2ccccn2)([C@H](C)NC(=O)c2ccc(Cl)cc2Cl)CC1 |  |  | 3.6 |  |  | Activity (Homo sapiens): inactive; clearance [6]: 3.5 mL/min/kg; Vd [7]: 1.37 L/kg; Activity (Rattus norvegicus [8]): inactive; Occ50 (Rattus norvegicus [9]): 150 nM; half-life [10]: 5 h; bioavailability [11]: 25%; Activity [12]: 11 nM; Papp A→B (MDR1 (human)): 37 ×10⁻⁶ cm/s
4 | O=C(NCC1(c2ccccn2)CCN(S(=O)(=O)CC(F)(F)F)CC1)c1ccc(Cl)cc1Cl |  | 4.9 | 2.5 |  | 1070 | 
5 | CCCS(=O)(=O)N1CCC(CNC(=O)c2ccc(Cl)cc2Cl)(CC2CC2)CC1 | > 30000 | < 2 | > 15 | > 30000 | 30 | 
6 | CCS(=O)(=O)N1CCC(CNC(=O)c2ccc(Cl)cc2Cl)(c2ccccn2)CC1 | > 30000 | 8 | 1.4 | > 30000 | 57 | 
7 | CCCS(=O)(=O)N1CCC(CNC(=O)c2ccc(Cl)cc2Cl)(C2CCCCC2OC(C)=O)CC1 (stereo unspecified) |  | < 2 | > 15 |  | 17.7 | 
8 | CC(F)CS(=O)(=O)N1CCC(CNC(=O)c2ccc(Cl)cc2Cl)(c2ccccn2)CC1 (stereo unspecified) | > 30000 |  |  | > 30000 | 9.7 | 
9 | O=C(NCC1(c2ccccn2)CCN(S(=O)(=O)C2CC2)CC1)c1ccc(Cl)cc1Cl | > 30000 | 7.6 | 1.7 | > 30000 | 200 | 
10 | CS(=O)(=O)N1CCC(CNC(=O)c2ccc(Cl)cc2Cl)(c2ccccn2)CC1 | > 30000 | 8.4 | 1 | > 30000 | 300 | 
11 | CC(C)S(=O)(=O)N1CCC(CNC(=O)c2ccc(Cl)cc2Cl)(c2ccccn2)CC1 |  |  |  |  | 220 | 
12 | CCCS(=O)(=O)N1CCC(CCOC)(CNC(=O)c2ccc(Cl)cc2Cl)CC1 | > 30000 | < 2 | > 15 | > 30000 | 26.5 | 
13 | CCCCS(=O)(=O)N1CCC(CNC(=O)c2ccc(Cl)cc2Cl)(c2ccccn2)CC1 |  |  |  |  | 120 | 
14 | CCCS(=O)(=O)N1CCC(CNC(=O)c2ccc(Cl)cc2Cl)(CC2CCCCO2)CC1 (stereo unspecified) | > 30000 | < 2 | > 15 | > 30000 | 2.9 | 
15 | CCCS(=O)(=O)N1CCC(CNC(=O)c2ccc(Cl)cc2Cl)(N2CCC2)CC1 |  | < 2 | > 15 |  | 38.1 | 
16 | CCCS(=O)(=O)N1CCC(CNC(=O)c2ccc(Cl)cc2Cl)(c2ccccn2)CC1 | > 30000 | 2.3 | 15 | > 30000 |  | 
17 | CC(O)CS(=O)(=O)N1CCC(CNC(=O)c2ccc(Cl)cc2Cl)(c2ccccn2)CC1 (stereo unspecified) |  |  |  |  | 86 | 
18 | CCS(=O)(=O)N1CCC(CNC(=O)c2ccc(Cl)cc2Cl)(CC2CC2)CC1 |  |  | 0.84 |  |  | Activity (Homo sapiens): inactive; clearance [6]: 2.3 mL/min/kg; Vd [7]: 2.1 L/kg; Activity (Rattus norvegicus [8]): inactive; Occ50 (Rattus norvegicus [9]): 260 nM; half-life [10]: 11.8 h; bioavailability [11]: 38%
19 | O=C(NCC1(c2ccccn2)CCN(S(=O)(=O)C(F)(F)F)CC1)c1ccc(Cl)cc1Cl |  |  |  |  | > 5000 | 
